According to patent publication US11213527B2, “Inhibitory effect of low molecular weight compound on cancer and fibrosis” (NATIONAL UNIVERSITY CORPORATION TOTTORI UNIVERSITY, priority 2014, dated 2022):

Legend:
[1] = system: liver cancer cell line HepG2 (CD133); experiment: FACS analysis of CD133-expressing cells; format: cell-based, human; conditions: 0.5 μM 5-FU, 50 μM IC-2, two days, DMSO 57.1%
Experimental: A liver cancer cell line HepG2 was seeded at 1.5×10^6 cells/dish on 10-cm dishes. Next, the cells were cultured at 37° C. and 5% CO2. After 24 hours, 1% DSMO, 0.5 μM 5-FU, or 50 μM IC-2 was added thereto and the cells were further incubated. Then, the cells were harvested at two days after the chemical treatment. Meanwhile, the cells were blocked in 0.5% BSA/0.5% FBS/2 mM EDTA/PBS. Subsequently, 50 μL of an anti-human CD133 monoclonal antibody (Miltenyi Biotec) was added to 500 μL of a cell suspension and the resulting mixture was resuspended and incubated at 4° C. for 10 min to carry out a primary antibody reaction. After the primary antibody reaction, the cells were washed 3 times with 1 mL of PBS. After 1.0 μg of an Alexa 488-labeled goat anti-mouse IgG antibody (Life Technologies Corp., Carlsbad, Calif., USA) was added, the mixture was resuspended and a secondary antibody reaction was performed in a dark room for 10 min at 4° C. Thereafter, the cells were washed twice with 5% FBS/2 mM EDTA/PBS and once with 5% FBS/2 mM EDTA/DEME. Next, the cells were resuspended in 500 μL of 5% FBS/2 mM EDTA/PBS. Then, 1 μg/mL of propidium iodide was added thereto. After that, the mixture was made to pass through a tube with a 40-μm mesh filter. Finally, a Beckman Coulter-MoFlo XDP was used to analyze CD133-expressing cells.

Wnt/β-catenin signal = experiment: Luciferase assay in HuH7 cells stably expressing pTCF4-CMVpro-Luc; format: cell-based; conditions: HuH7 reporter cells; two days after treatment
Experimental: First, 30 μg of a pTCF4-CMVpro-Luc was added to 5×10^6 HuH7 cells and the plasmid was introduced using a Cellject Pro (Thermo, Massachusetts, USA) (at 250 V, 1500 μF). Twenty-four hours after the gene introduction, 2 μg/mL of puromycin was added. Then, the cells were selected while a medium was changed every 3 to 5 days. It was observed that colonies of the pTCF4-CMVpro-Luc-containing HuH7 cells were formed at 20 days after initiation of the selection. A cloning ring, which was manufactured such that an end portion of a blue tip was cut, (the bottom edge of the cloning ring was provided with vaseline), was then used to surround one of the colonies formed. Subsequently, 30 μL of a 0.25% Trypsin/1 mM EDTA solution, which was prepared by diluting a stock solution 5-fold with PBS, was added to detach and collect the cells. […]
Next, a luciferase assay was conducted. […] Subsequently, 10 μL of the cell lysate prepared by using PLB in the 24-well plate was added to the tube, and the luciferase activity was measured by using a MiniLumat LB 9506 (Berthold Technologies, Bad Wildbad, German).
First, the HuH7 cells that were at 70 to 90% confluency and stably expressed the pTCF4-CMVpro-Luc were collected, and the 1×10^4 cells were seeded in each well of a 96-well plate (FALCON). […] Then, a fluorescence plate reader Infinite F500 (TECAN, Zurich, Switzerland) was used to measure luciferase activity.

[2] = system: liver cancer cell line HLF (CD90); experiment: FACS analysis of CD90-expressing cells; format: cell-based, human; conditions: 0.5 μM 5-FU, 50 μM IC-2, two days, DMSO 21.8%
Experimental: A liver cancer cell line HLF was seeded at 1.5×10^6 cells/dish on 10-cm dishes. Next, the cells were cultured at 37° C. and 5% CO2. After 24 hours, 1% DSMO, 0.5 μM 5-FU, or 50 μM IC-2 was added thereto and the cells were further incubated. Two days after the chemical treatment, the cells were harvested. Then, the cells were blocked in 0.5% BSA/0.5% FBS/2 mM EDTA/PBS. Subsequently, 5 μL of an APC-labeled mouse anti-human CD90 antibody (BD Biosciences, San Jose, Calif., USA) was added to 500 μL of a cell suspension and the resulting mixture was resuspended and incubated at 4° C. for 10 min to carry out a primary antibody reaction. After the antibody reaction, the cells were washed twice with 0.5% FBS/2 mM EDTA/PBS and once with 5% FBS/2 mM EDTA/DMEM. Next, the cells were resuspended in 500 μL of 5% FBS/2 mM EDTA/PBS. Then, 1 μg/mL of propidium iodide was added thereto. After that, the mixture was made to pass through a tube with a 40-μm mesh filter. Finally, a Beckman Coulter-MoFlo XDP was used to analyze CD90-expressing cells. […] The concentration of IC-2 was determined on the basis of a concentration at which a Wnt/β-catenin signal was inhibited.

CD44-positive HuH7 cells = experiment: Liver cancer model mice, CD44-positive HuH7 cells subcutaneously transplanted; format: in vivo; conditions: for change in the body weight: 50 mg/kg IC-2 or 30 mg/kg 5-FU intraperitoneally every 3 days
Experimental: CD44-positive HuH7 cells were subcutaneously transplanted into mice. The mice were then divided into 3 groups (DMSO group: 5 mice; 5-FU group: 4 mice; and IC-2 group: 4 mice). Subsequently, 30 mg/kg of 5-FU, 50 mg/kg of IC-2, or DMSO (as a control), which was a solvent for each chemical, was intraperitoneally administered every 3 days. The body weight and the tumor length and width of each mouse were measured every 3 days. The tumor volume was calculated by using the following equation: Tumor volume=Length×(Width)^2×0.5. The volume at Day 0 was used to normalize each tumor volume, and then a graph was created. To sufficiently evaluate an effect of 5-FU, the dosage that was usually […] in research articles was doubled to set a 5-FU dose. The IC-2 concentration corresponding to a concentration at which a Wnt/β-catenin signal was inhibited in vitro was calculated. Then, the concentration was doubled to set an IC-2 dose.

SMILES	proportion of the CD133-expressing cells [1] [%]	inhibitory effect on a Wnt/β-catenin signal (luciferase activity) (Wnt/β-catenin signal)	proportion of the CD90-expressing cells [2] [%]	change in the body weight (CD44-positive HuH7 cells)	therapeutic effect of treating a malignant tumor (tumor volume) (CD44-positive HuH7 cells; 50 mg/kg IC-2 vs 30 mg/kg 5-FU intraperitoneally every 3 days)
O=c1[nH]cc(F)c(=O)[nH]1 [5-FU, reference compound]	33.3	exerted no inhibitory effect	24.1	no observable change in the body weight	–
O=C1[C@H](Cc2ccccc2)N2C(=O)CCN(C(=O)NCc3ccccc3)[C@H]2CN1Cc1cccc2ccccc12 [IC-2]	1.45	exerted an inhibitory effect	13.5	no observable change in the body weight	significantly higher therapeutic effect of treating a malignant tumor than that of 5-FU
